≈ marks a conversion by molar mass, not a printed value.
How the values were obtained:
S. aureus ATCC 29213 = assay: Minimum inhibitory concentration (MIC) assay, broth microdilution, MSSA; assay type: cell-based; conditions: Staphylococcus aureus, Table I
Method: (§1) The antimicrobial activity of the compounds of the invention may be evaluated by a number of methods, including the following visual minimum inhibitory concentration (MIC) assay. This assay determines the minimum concentration of compound required to inhibit growth of a bacterial strain.
(§2) Whole-cell antibacterial activity is determined by broth microdilution using conditions recommended by the NCCLS (see National Committee for Clinical Laboratory Standards. 2001. Performance standards for antimicrobial susceptibility testing: 11th informational supplement. Vol. 21, no. 1, M100-S11. National Committee for Clinical Laboratory Standards, Wayne, Pa.). Test compounds are dissolved in DMSO and diluted 1:50 in Mueller-Hinton II broth (Becton-Dickinson) to produce a 256 μg/ml stock solution. In a 96-well microtiter plate, the compound solution is serially two-fold diluted in Mueller-Hinton II broth. After the compounds are diluted, a 50 μl aliquot of the test organism (˜1×10^6 cfu/mL) is added to each well of the microtiter plate. The final test concentrations ranges from 0.125-128 μg/mL. Inoculated plates are incubated in ambient air at 37° C. for 18 to 24 hours. The organisms selected for testing included laboratory strains S. aureus ATCC 29213 and E. coli ATCC 25922 (strains purchased from American Type Culture Collection, Manassas, Va.) m, S. aureus FQR700699, and Paeruginosa 27853. The minimum inhibitory concentration (MIC) is determined as the lowest concentration of compound that inhibited visible growth of the test organism.

[1] = system: fluoroquinolone-resistant S. aureus ATCC 700699; assay: Minimum inhibitory concentration (MIC) assay, broth microdilution, MRSA; assay type: cell-based; conditions: Staphylococcus aureus; fluoroquinolone-resistant S. aureus ATCC 700699; Table I; read-out: MRSA MIC
Method: as §1, §2

| SMILES | MIC (S. aureus ATCC 29213) | MIC [1] |
| --- | --- | --- |
| COC(=O)c1sc2c(c1O)c(=O)c1cc(F)c(N3CC[C@@H](C(C)(C)N)C3)c(OC)c1n2C1CC1 [Cmp 5, (R)-methyl 7-(3-(2-aminopropan-2-yl)pyrrolidin-1-yl)-9-cyclopropyl-6-fluoro-3-hydroxyl-8-methoxy-4-oxo-4,9-dihydrothieno [2,3-b]quinoline-2-carboxylate] | 2 µg/mL (≈ 4.09 µM) | 64 µg/mL (≈ 131 µM) |
| COc1c(N2CC[C@@H](C(C)(C)N)C2)c(F)cc2c(=O)c3c(O)csc3n(C3CC3)c12 [Cmp 6, (R)-7-(3-(2-aminopropan-2-yl)pyrrolidin-1-yl)-9-cyclopropyl-6-fluoro-3-hydroxyl-8-methoxythieno[2,3-b]quinolin-4(9H)-one] | 2 µg/mL (≈ 4.63 µM) | 32 µg/mL (≈ 74.2 µM) |
| COC(=O)c1sc2c(c1O)c(=O)c1cc(F)c(N3CCNCC3)c(OC)c1n2C1CC1 [Cmp 7, methyl 9-cyclopropyl-6-fluoro-3-hydroxyl-8-methoxy-4-oxo-7-(piperazin-1-yl)-4,9-dihydrothieno[2,3-b] quinoline-2-carboxylate] | 3 µg/mL (≈ 6.7 µM) | 32 µg/mL (≈ 71.5 µM) |
| COc1c(N2CCNCC2)c(F)cc2c(=O)c3c(O)csc3n(C3CC3)c12 [Cmp 8, 9-cyclopropyl-6-fluoro-3-hydroxyl-8-methoxy-7-(piperazin-1-yl)thieno[2,3-b]quinolin-4(9H)-one] | 32 µg/mL (≈ 82.2 µM) | > 64 µg/mL |
| COc1c(N2CCNCC2)c(F)cc2c(=O)c3c(O)c(C(=O)C(C)(C)C)sc3n(C3CC3)c12 [Cmp 12, 9-cyclopropyl-6-fluoro-3-hydroxyl-8-methoxy-7-(piperazin-1-yl)-2-pivaloylthieno[2,3-b]quinolin 4(9H)-one] | 8 µg/mL (≈ 16.9 µM) | 8 µg/mL (≈ 16.9 µM) |
| COc1c(N2CC[C@@H](C(C)(C)N)C2)c(F)cc2c(=O)c3c(O)c([N+](=O)[O-])sc3n(C3CC3)c12 [Cmp 13, (R)-7-(3-(2-aminopropan-2-yl)pyrrolidin-1-yl)-9-cyclopropyl-6-fluoro-3-hydroxyl-8-methoxy-2-nitrothieno[2,3-b] quinolin-4(9H)-one] | 8 µg/mL (≈ 16.8 µM) | 32 µg/mL (≈ 67.2 µM) |
| COc1c(N2CCNCC2)c(F)cc2c(=O)c3c(O)c(S(=O)(=O)c4ccccc4)sc3n(C3CC3)c12 [Cmp 14, 9-cyclopropyl-6-fluoro-3-hydroxyl-8-methoxy-2-(phenylsulfonyl)-methoxy-2-7-(piperazin-1-yl)thieno[2,3-b]quinolin-4(9H)-one] | 1 µg/mL (≈ 1.89 µM) | 16 µg/mL (≈ 30.2 µM) |
| COc1c(N2CCNCC2)c(F)cc2c(=O)c3c(O)c(-c4ccc(F)c(F)c4)sc3n(C3CC3)c12 [Cmp 15, 9-cyclopropyl-2-(3,4-difluorophenyl)-6-fluoro-3-hydroxyl-8-methoxy-7-(piperazin-1-yl)thieno[2,3-b]quinolin-4(9H)-one] | 8 µg/mL (≈ 16 µM) | 4 µg/mL (≈ 7.98 µM) |
| N#Cc1sc2c(c1O)c(=O)c1ccc(N3CCNCC3)c(OC(F)F)c1n2C1CC1 [Cmp 16, 9-cyclopropyl-8-(difluoromethoxy)-3-hydroxyl-4-oxo-7-(piperazin-l-yl)-4,9-dihydrothieno[2,3-b]quinoline-2-carbonitrile] | 4 µg/mL (≈ 9.25 µM) | 64 µg/mL (≈ 148 µM) |
| CN(C)c1ccc2c(=O)c3c(O)c(C#N)sc3n(C3CC3)c2c1OC(F)F [Cmp 17, 9-cyclopropyl-8-(difluoromethoxy)-7-(dimethylamino)-3-hydroxyl-4-oxo-4,9-dihydrothieno[2,3-b]quinoline-2-carbonitrile] | 4 µg/mL (≈ 10.2 µM) | 64 µg/mL (≈ 164 µM) |
| COc1c(N2CCNCC2)ccc2c(=O)c3c(O)c(C#N)sc3n(C3CC3)c12 [Cmp 19, 9-cyclopropyl-3-hydroxyl-8-methoxy-4-oxo-7-(piperazin-1-yl)-4,9-dihydrothieno[2,3-b]quinoline-2-carbonitrile] | 0.25 µg/mL (≈ 0.631 µM) | 4 µg/mL (≈ 10.1 µM) |
| COc1c(N2CCNCC2)c(F)cc2c(=O)c3c(O)c(C(=O)C(F)(F)F)sc3n(C3CC3)c12 [Cmp 20, 9-cyclopropyl-6-fluoro-3-hydroxyl-8-methoxy-7-(piperazin-1-yl)-2-(2,2,2-trifluoroacetyl)thieno[2,3-b]quinolin-4(9H)-one] | 64 µg/mL (≈ 132 µM) | > 64 µg/mL |
| N#Cc1sc2c(c1O)c(=O)c1cc(F)c(N3CCNCC3)cc1n2C1CC1 [Cmp 21, 9-cyclopropyl-6-fluoro-3-hydroxyl-4-oxo-7-(piperazin-1-yl)-4,9-dihydrothieno[2,3-b]quinoline-2-carbonitrile] | 0.13 µg/mL (≈ 0.338 µM) | 2 µg/mL (≈ 5.2 µM) |
| COc1c(N2CCNCC2)c(F)cc2c(=O)c3c(O)c(C(N)=O)sc3n(C3CC3)c12 [Cmp 25, 9-cyclopropyl-6-fluoro-3-hydroxyl-8-methoxy-4-oxo-7-(piperazin-1-yl)-4,9-dihydrothieno[2,3-b]quinoline-2-carboxamide] | 0.25 µg/mL (≈ 0.578 µM) | 2 µg/mL (≈ 4.62 µM) |
| COc1c(N2CC[C@H](N)C2)c(F)cc2c(=O)c3c(O)c(C#N)[nH]c3n(C3CC3)c12 [Cmp 28, (S)-7-(3-aminopyrrolidin-l-yl)-9-cyclopropyl-6-fluoro-3-hydroxyl-8-methoxy-4-oxo-4,9-dihydro-1H-pyrrolo[2,3-b]quinoline-2-carbonitrile] | 64 µg/mL (≈ 161 µM) | – |

Next, values leading:

| MIC (S. aureus ATCC 29213) | MIC [1] | SMILES |
| --- | --- | --- |
| 0.02 µg/mL (≈ 0.0409 µM) | 0.13 µg/mL (≈ 0.266 µM) | COc1c(N2CC[C@@H]([C@H](C)NCCF)C2)c(F)cc2c(=O)c3c(O)c(C#N)sc3n(C3CC3)c12 [Cmp 1, 9-cyclopropyl-6-fluoro-7-((R)-3-((S)-1-(2-fluoroethylamino)ethyl)pyrrolidin-1-yl)-3-hydroxyl-8-methoxy-4-oxo-4,9-dihydrothieno[2,3-b]quinoline-2-carbonitrile] |
| 0.06 µg/mL (≈ 0.137 µM) | 0.42 µg/mL (≈ 0.958 µM) | COc1c(N2CC[C@@H](C(C)(C)N)C2)ccc2c(=O)c3c(O)c(C#N)sc3n(C3CC3)c12 [Cmp 2, (R)-7-(3-(2-aminopropan-2-yl)pyrrolidin-1-yl)-9-cyclopropyl-3-hydroxyl-8-methoxy-4-oxo-4,9-dihydrothieno[2,3-b]quinoline-2-carbonitrile] |
| 0.25 µg/mL (≈ 0.555 µM) | 4 µg/mL (≈ 8.88 µM) | N#Cc1sc2c(c1O)c(=O)c1cc(F)c(N3CCNCC3)c(OC(F)F)c1n2C1CC1 [Cmp 3, 9-cyclopropyl-8-(difluoromethoxy)-6-fluoro-3-hydroxyl-4-oxo-7-(piperazin-1-yl)-4,9-dihydrothieno[2,3-b]quinoline-2-carbonitrile] |
| 0.02 µg/mL (≈ 0.0475 µM) | 0.13 µg/mL (≈ 0.308 µM) | COc1c(-c2ccnc(C)c2)c(F)cc2c(=O)c3c(O)c(C#N)sc3n(C3CC3)c12 [Cmp 4, 9-cyclopropyl-6-fluoro-3-hydroxyl-8-methoxy-7-(2-methylpyridin-4-yl)-4-oxo-4,9-dihydrothieno[2,3-b]quinoline-2-carbonitrile] |
| 0.06 µg/mL (≈ 0.145 µM) | 0.75 µg/mL (≈ 1.81 µM) | COc1c(N2CCNCC2)c(F)cc2c(=O)c3c(O)c(C#N)sc3n(C3CC3)c12 [Cmp 9, 9-cyclopropyl-6-fluoro-3-hydroxyl-8-methoxy-4-oxo-7-(piperazin-1-yl)-4,9-dihydrothieno[2,3-b]quinoline-2-carbonitrile] |
| 0.02 µg/mL (≈ 0.0438 µM) | 0.094 µg/mL (≈ 0.206 µM) | COc1c(N2CC[C@@H](C(C)(C)N)C2)c(F)cc2c(=O)c3c(O)c(C#N)sc3n(C3CC3)c12 [Cmp 10, (R)-7-(3-(2-aminopropan-2-yl)pyrrolidin-1-yl)-9-cyclopropyl-6-fluoro-3-hydroxyl-8-methoxy-4-oxo-4,9-dihydrothieno [2,3-b]quinoline-2-carbonitrile] |
| 0.02 µg/mL (≈ 0.0452 µM) | 0.094 µg/mL (≈ 0.212 µM) | COc1c(N2CC[C@@H]([C@H](C)N)C2)c(F)cc2c(=O)c3c(O)c(C#N)sc3n(C3CC3)c12 [Cmp 11, 7-((R)-3-((S)-1-aminoethyl)pyrrolidin-1-yl)-9-cyclopropyl-6-fluoro-3-hydroxyl-8-methoxy-4-oxo-4,9-dihydrothieno[2,3-b] quinoline-2-carbonitrile] |
| 0.13 µg/mL (≈ 0.266 µM) | 4 µg/mL (≈ 8.17 µM) | N#CCN1CCN(c2c(F)cc3c(=O)c4c(O)c(C#N)sc4n(C4CC4)c3c2OC(F)F)CC1 [Cmp 18, 7-(4-(cyanomethyl)piperazin-1-yl)-9-cyclopropyl-8-(difluoromethoxy)-6-fluoro-3-hydroxyl-4-oxo-4,9-dihydrothieno [2,3-b]quinoline-2-carbonitrile] |
| 0.03 µg/mL (≈ 0.0724 µM) | 0.25 µg/mL (≈ 0.603 µM) | COc1c(N2CC[C@H](N)C2)c(F)cc2c(=O)c3c(O)c(C#N)sc3n(C3CC3)c12 [Cmp 22, (S)-7-(3-aminopyrrolidin-l-yl)-9-cyclopropyl-6-fluoro-3-hydroxyl-8-methoxy-4-oxo-4,9-dihydrothieno[2,3-b]quinoline-2-carbonitrile] |
| 0.03 µg/mL (≈ 0.0722 µM) | 0.5 µg/mL (≈ 1.2 µM) | COc1c(N2CC[C@H](O)C2)c(F)cc2c(=O)c3c(O)c(C#N)sc3n(C3CC3)c12 [Cmp 23, (S)-9-cyclopropyl-6-fluoro-3-hydroxyl-7-(3-hydroxyl-pyrrolidin-1-yl)-8-methoxy-4-oxo-4,9-dihydrothieno [2,3-b]quinoline-2-carbonitrile] |
| 0.06 µg/mL (≈ 0.149 µM) | 1 µg/mL (≈ 2.49 µM) | COc1c(N2CC(O)C2)c(F)cc2c(=O)c3c(O)c(C#N)sc3n(C3CC3)c12 [Cmp 24, 9-cyclopropyl-6-fluoro-3-hydroxyl-7-(3-hydroxylazetidin-1-yl)-8-methoxy-4-oxo-4,9-dihydrothieno[2,3-b]quinoline-2-carbonitrile] |

— patent US8173636B2, “Hydroxylthienoquinolones and related compounds as anti-infective agents” (Achillion Pharmaceuticals, Inc., priority 2009, dated 2012)
